Laboratory results taken from patent EP1143981B1, “USE OF N-GLYCOLNEURAMINIC ACID AND ITS DERIVATIVES FOR THE MANUFACTURE OF A MEDICAMENT FOR THE TREATMENT OF HIV INFECTIONS” (Glukor, Inc., priority 1998, dated 2000).

Columns and labels:
HIV-1 IIIB = experiment: HIV-1 P24 output, test solutions added post infection; assay type: cell-based; conditions: Human immunodeficiency virus 1, IIIB; endpoint of the inhibition; read-out: lowest effective concentration for inhibition of HIV p24 output
Method: In addition, a similar experiment was performed, except that test solutions were added post infection, at the time of plating into the triplicate wells.

PBMCs = assay type: cell-based; conditions: human
Method: Fresh human PBMCs were isolated from voluntary Red Cross donors, seronegative for HIV and HBV. Leukophoresed blood was diluted 1:1 with Dulbecco's PBS, layered over 14 mL of Ficoll-Hypaque density gradient in a 50mL centrifuge and then centrifuged for 30 minutes at 600 x g. Banded PBMCs were gently aspirated from the resulting interface and subsequently washed twice with PBS by low speed centrifugation. […] PBMCs were maintained in this medium at a concentration of 1-2 x 10^6 cells/mL with bi-weekly medium changes until used in the assay. […]
Tetrazolium dye staining of screening plates: After 6 days of incubation (37°C with 5% CO2), the test plates were analyzed by staining with the tetrazolium dye XTT (2,3-b (2-methoxy-4-nitro-5-sulfophenyl)-2H-tetrazolium -5-carboxanilide). XTT-tetrazolium is metabolized by mitochondrial enzymes of metabolically active cells to a soluble formazan product, allowing the rapid quantitative analysis of the inhibition of HIV-induced cell killing by anti-HIV compounds. […] Plates were sealed with adhesive plate sealers and inverted several times to mix the soluble formazan product and the plate was read spectrophotometrically at 450nm with a Molecular Devices Vmax plate reader. Indices such as %CPE Reduction (cytopathic effects), %Cell Viability, IC25, IC50, IC95, TC25, TC50, and TC95 and other indices were calculated. […]

HIV-1IIIB = experiment: PBMC cell-based anti-HIV assay; conditions: PBMCs; laboratory strain
Method: For the standard PBMC assay, PHA-P stimulated cells from at least two normal donors were pooled, diluted in fresh medium to a final concentration of 1 x 10^6 cells/mL, and plated in the interior wells of a 96 well round bottom microplate at 50 µL/well (5 x 10^4 cells/well). Test drug dilutions were prepared at a 2X concentration in microfuge tubes and 100 µL of each concentration was placed in appropriate wells in a standard format. A predetermined dilution of virus stock was placed in each test well (50 µL, final MOI ≅ 0.1). Wells with cells and virus alone were used for virus control. Separate plates were prepared identically without virus for drug cytotoxicity studies using an XTT assay system. The PBMC cultures were maintained for seven days following infection, at which time cell-free supernatant samples were collected and assayed for reverse transcriptase activity as described below.
Reverse Transcriptase Activity Assay: A microtiter based reverse transcriptase (RT) reaction was utilized as described by Buckheit et al., (1991), AIDS Research and Human Retroviruses, 7:295-302. Tritiated thymidine triphosphate (^3H-TTP) was suspended in distilled H2O at 5 Ci/mL. […] Opti-Fluor-O (Packard) was added to each sample and incorporated radioactivity was quantified utilizing a Wallac 1450 MicroBeta Plus liquid scintillation counter. […]

X4 strain LAI/IIIB = experiment: RT activity in infected PBMCs over 20 days post-infection; assay type: cell-based
Method: Reverse Transcriptase Activity Assay: A microtiter based reverse transcriptase (RT) reaction was utilized as described by Buckheit et al., (1991), AIDS Research and Human Retroviruses, 7:295-302. Tritiated thymidine triphosphate (^3H-TTP) was suspended in distilled H2O at 5 Ci/mL. Poly rA and oligo dT were prepared as a stock solution which was kept at -20°C. RT reaction buffer was prepared fresh on a daily basis and contained 125 µL 1M EGTA, 125 µL dH2O, 110 µL 10% SDS, 50 µL 1M Tris (pH 7.4), 50 µL 1M DTT, and 40 µL 1M MgCl2. These three solutions were mixed together in a ratio of 2 parts ^3H-TTP, 1 part poly rA:oligo dT, and 1 part reaction buffer. Ten microliters of this reaction mixture were placed in a round bottom microtiter plate and 15 µL of virus containing supernatant were added and mixed. The plate was incubated at 37°C in a water bath with a solid support to prevent submersion of the plate and incubated for 60 minutes. After the incubation period, the reaction volume was spotted onto pieces of DE81 paper, washed 5 times for 5 minutes each in a 5% sodium phosphate buffer, 2 times for 1 minute each in distilled water, 2 times for 1 minute each in 70% ethanol, and then dried. Opti-Fluor-O (Packard) was added to each sample and incorporated radioactivity was quantified utilizing a Wallac 1450 MicroBeta Plus liquid scintillation counter. Plates were screened with tetrazolium dye staining as described above.
PBMCs were treated with dilutions of LUKOR of 1:4, 1:20, 1:100, 1:500, or 1:2500, or concentrations ofN-glycolylneuraminic acid or N-acetylneuraminic acid of 0.4, 1.2, 3.6, 11, or 33µg/ml. No carbohydrates were added to the control sample. RT activity was determined at 3, 6, 9,13, 17, and 20 days post-infection (PI) with X4 strain LAI/IIIB.

O=C(CO)N[C@H]1[C@H]([C@H](O)[C@H](O)CO)OC(O)(C(=O)O)C[C@@H]1O (stereo partly shown) [N-glycolylneuraminic acid]
minimal effective concentration (HIV-1 IIIB): 0.003 µg/mL
CC50 (PBMCs): > 1 mM
anti-HIV activity (HIV-1IIIB): inactive
RT Activity (X4 strain LAI/IIIB; 0.4 µg/ml, 3 days PI): 53
RT Activity (X4 strain LAI/IIIB; 0.4 µg/ml, 6 days PI): 113
RT Activity (X4 strain LAI/IIIB; 0.4 µg/ml, 9 days PI): 1342
RT Activity (X4 strain LAI/IIIB; 0.4 µg/ml, 13 days PI): 1371
RT Activity (X4 strain LAI/IIIB; 0.4 µg/ml, 17 days PI): 1509
RT Activity (X4 strain LAI/IIIB; 0.4 µg/ml, 20 days PI): 1250
RT Activity (X4 strain LAI/IIIB; 3.6 µg/ml, 3 days PI): 45
RT Activity (X4 strain LAI/IIIB; 3.6 µg/ml, 6 days PI): 44
RT Activity (X4 strain LAI/IIIB; 3.6 µg/ml, 9 days PI): 139
RT Activity (X4 strain LAI/IIIB; 3.6 µg/ml, 13 days PI): 428
RT Activity (X4 strain LAI/IIIB; 3.6 µg/ml, 17 days PI): 1262
RT Activity (X4 strain LAI/IIIB; 3.6 µg/ml, 20 days PI): 616
RT Activity (X4 strain LAI/IIIB; 11 µg/ml, 3 days PI): 40
RT Activity (X4 strain LAI/IIIB; 11 µg/ml, 6 days PI): 75
RT Activity (X4 strain LAI/IIIB; 11 µg/ml, 9 days PI): 956
RT Activity (X4 strain LAI/IIIB; 11 µg/ml, 13 days PI): 2544
RT Activity (X4 strain LAI/IIIB; 11 µg/ml, 17 days PI): 3261
RT Activity (X4 strain LAI/IIIB; 11 µg/ml, 20 days PI): 1411
RT Activity (X4 strain LAI/IIIB; 33 µg/ml, 3 days PI): 32
RT Activity (X4 strain LAI/IIIB; 33 µg/ml, 6 days PI): 75
RT Activity (X4 strain LAI/IIIB; 33 µg/ml, 9 days PI): 567
RT Activity (X4 strain LAI/IIIB; 33 µg/ml, 13 days PI): 1103
RT Activity (X4 strain LAI/IIIB; 33 µg/ml, 17 days PI): 2356
RT Activity (X4 strain LAI/IIIB; 33 µg/ml, 20 days PI): 2917
RT activity in treated cells (summary in words) (X4 strain LAI/IIIB; all dilutions/concentrations, 3-20 days PI): RT activity was decreased
